Measured values reported in PMC10649927, “Integration of Deep Learning and Sequential Metabolism to Rapidly Screen Dipeptidyl Peptidase (DPP)-IV Inhibitors from Gardenia jasminoides Ellis” (Molecules, 2023).

Molecular target: T1, human recombinant DPP-IV (Homo sapiens, UniProt P27487)
T1 construct: gene DPP4; commercial recombinant human enzyme from ProSpec (Rehovot, Israel)
Experiment: Gly-Pro-pNA hydrolysis, absorbance at […] nm
Assay type: biochemical
Conditions: Gly-Pro-pNA substrate (20 µL of 1.75 mM), 0.1 M Tris-HCl, 0.1 M NaCl, 1 mM EDTA, pH 8.0, 37 °C, 30 min

T1 sequence (P27487 29-766 limits assumed): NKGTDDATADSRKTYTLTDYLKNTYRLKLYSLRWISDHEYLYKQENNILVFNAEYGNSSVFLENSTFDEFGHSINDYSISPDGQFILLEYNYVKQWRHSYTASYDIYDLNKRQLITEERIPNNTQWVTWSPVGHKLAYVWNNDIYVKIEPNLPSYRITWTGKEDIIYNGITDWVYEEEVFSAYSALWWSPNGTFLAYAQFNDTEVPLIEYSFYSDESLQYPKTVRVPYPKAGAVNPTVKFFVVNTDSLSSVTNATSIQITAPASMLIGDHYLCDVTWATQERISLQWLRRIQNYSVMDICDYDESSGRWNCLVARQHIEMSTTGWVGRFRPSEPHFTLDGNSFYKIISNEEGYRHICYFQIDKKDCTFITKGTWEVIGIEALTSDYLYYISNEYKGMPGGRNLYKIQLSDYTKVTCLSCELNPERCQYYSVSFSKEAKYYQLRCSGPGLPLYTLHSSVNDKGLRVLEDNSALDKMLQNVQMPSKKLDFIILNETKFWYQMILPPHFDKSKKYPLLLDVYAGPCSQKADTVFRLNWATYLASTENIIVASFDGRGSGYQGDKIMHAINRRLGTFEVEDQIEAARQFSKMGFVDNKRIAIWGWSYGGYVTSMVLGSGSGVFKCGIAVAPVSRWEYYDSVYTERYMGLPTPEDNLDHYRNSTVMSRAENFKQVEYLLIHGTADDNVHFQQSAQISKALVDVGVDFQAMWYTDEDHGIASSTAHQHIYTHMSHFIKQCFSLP

SMILES	% inhibition at 1 mM
O=C(O)C1=CO[C@@H](O[C@@H]2O[C@H](CO)[C@@H](O)[C@H](O)[C@H]2O)[C@@H]2C(CO)=C[C@@H](O)[C@H]12 [compound 3, scandoside]	the six GJE compounds inhibited the activity of DPP-IV
O=C(O)C1=CO[C@@H](O[C@@H]2O[C@H](CO)[C@@H](O)[C@H](O)[C@H]2O)[C@@H]2C(CO)=CC[C@H]12 [compound 4, geniposidic acid]	the six GJE compounds inhibited the activity of DPP-IV
COC(=O)C1=CO[C@@H](O[C@@H]2O[C@H](CO)[C@@H](O)[C@H](O)[C@H]2O)[C@H]2[C@@H]1[C@H](O)C[C@]2(C)O [compound 5, shanzhiside methyl ester]	the six GJE compounds inhibited the activity of DPP-IV
C[C@]1(O)C[C@@H](O)[C@@H]2C(C(=O)O)=CO[C@@H](O[C@@H]3O[C@H](CO)[C@@H](O)[C@H](O)[C@H]3O)[C@@H]21 [compound 6, shanzhiside]	the six GJE compounds inhibited the activity of DPP-IV
